Test results: BigSolDB 2.1

CO[C@H]1O[C@@H]2O[C@@]3(C)CC[C@H]4[C@H](C)CC[C@@H]([C@H]1C)[C@@]24OO3
solubility (mole fraction)
Details	in ethanol	in methanol
289.05 K	0.0395	–
289.45 K	–	0.0263
290.85 K	0.0426	–
291.15 K	–	0.0295
293.95 K	0.0492	–
294.05 K	–	0.0343
296.95 K	0.0592	0.0405
299.05 K	0.0682	0.0463
300.75 K	–	0.0519
301.05 K	0.0764	–
303.55 K	–	0.0649
303.95 K	0.0903	–
306.35 K	–	0.0824
306.95 K	0.11	–
308.25 K	–	0.0988
308.45 K	0.117	–
310.15 K	–	0.116
310.45 K	0.133	–
312.95 K	–	0.149
313.2 K	0.164	–
315.65 K	–	0.187
316.25 K	0.2	–
317.35 K	–	0.222
318.95 K	0.251	–
319.45 K	–	0.297
322.05 K	–	0.355
322.65 K	0.315	–
326.05 K	0.387	–
328.65 K	0.442	–
